Test results as given in article PMC5598135 (Toxicology Reports, 2014).

Molecular target: mTOR kinase (Homo sapiens, UniProt P42345)
Assay: cell-free ELISA kinase assay
Type: biochemical

IC50: 6 nM
Structure (SMILES): O=C1NC(c2cccc3ncccc23)Nc2ccccc21 (stereo not shown) [DQQ, 2,3-dihydro-2-(quinoline-5-yl) quinazolin-4(1H)-one]
